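Interpolation was linear, between the two tested concentrations surrounding the appropriate level; five concentrations were tested over 48 hours in 96-well plates. TGI denotes the concentration required for complete inhibition of growth.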
Tests used:
Test in all cases: NCI tumour cell line growth inhibition, 48 h
HOP-62 NSCLC = system: HOP-62 NSCLC
ACHN renal = system: ACHN renal
SK-MEL-2 melanoma = system: SK-MEL-2 melanoma
SR leukemia = system: SR leukemia
SK-MEL-28 melanoma = system: SK-MEL-28 melanoma
SW-620 colon = system: SW-620 colon
HL-60(TB) leukemia = system: HL-60(TB) leukemia
K-562 leukemia = system: K-562 leukemia
OVCAR-5 ovarian = system: OVCAR-5 ovarian
U251 CNS = system: U251 CNS
UACC-62 melanoma = system: UACC-62 melanoma
LXFL 529 NSCLC = system: LXFL 529 NSCLC
786-0 renal = system: 786-0 renal
LOX IMVI melanoma = system: LOX IMVI melanoma
KM12 colon = system: KM12 colon
SF-539 CNS = system: SF-539 CNS
TK-10 renal = system: TK-10 renal
HOP-18 NSCLC = system: HOP-18 NSCLC
UO-31 renal = system: UO-31 renal
MALME-3M melanoma = system: MALME-3M melanoma
NCI-H23 lung = system: NCI-H23 lung
KM20L2 colon = system: KM20L2 colon
A549 NSCLC = system: A549 NSCLC
SNB-75 CNS = system: SNB-75 CNS
CCRF-CEM leukemia = system: CCRF-CEM leukemia
UACC-257 melanoma = system: UACC-257 melanoma
HCT-15 colon = system: HCT-15 colon
M14 melanoma = system: M14 melanoma
OVCAR-4 ovarian = system: OVCAR-4 ovarian
SF-295 CNS = system: SF-295 CNS
COLO 205 colon = system: COLO 205 colon
NCI-H226 lung = system: NCI-H226 lung
MOLT-4 leukemia = system: MOLT-4 leukemia
HT29 colon = system: HT29 colon
OVCAR-8 ovarian = system: OVCAR-8 ovarian
M19-MEL melanoma = system: M19-MEL melanoma
DMS 273 small cell lung = system: DMS 273 small cell lung
SN12C renal = system: SN12C renal
DLD-1 colon = system: DLD-1 colon
SF-268 CNS = system: SF-268 CNS
HCT-116 colon = system: HCT-116 colon
HCC-2998 colon = system: HCC-2998 colon
NCI-H522 lung = system: NCI-H522 lung
SNB-19 CNS = system: SNB-19 CNS
SK-OV-3 ovarian = system: SK-OV-3 ovarian
CAKI-1 renal = system: CAKI-1 renal
EKVX NSCLC = system: EKVX NSCLC
HOP-92 NSCLC = system: HOP-92 NSCLC
DMS 114 small cell lung = system: DMS 114 small cell lung
RXF 393 renal = system: RXF 393 renal
SNB-78 CNS = system: SNB-78 CNS
NCI-H460 lung = system: NCI-H460 lung
A498 renal = system: A498 renal
RPMI-8226 leukemia = system: RPMI-8226 leukemia
SK-MEL-5 melanoma = system: SK-MEL-5 melanoma
IGROV1 ovarian = system: IGROV1 ovarian
OVCAR-3 ovarian = system: OVCAR-3 ovarian
DU-145 prostate = system: DU-145 prostate
BT-549 breast = system: BT-549 breast
PC-3 prostate = system: PC-3 prostate
HS 578T breast = system: HS 578T breast
NCI/ADR-RES ovarian = system: NCI/ADR-RES ovarian
MCF7 breast = system: MCF7 breast
T-47D breast = system: T-47D breast
MDA-MB-435 = system: MDA-MB-435
MDA-N = system: MDA-N
MDA-MB-231 breast = system: MDA-MB-231 breast

Measured: TGI

[O-]c1c2cc(-[n+]3c(-c4ccccc4)cc(-c4ccccc4)cc3-c3ccccc3)cc1COCCOCCOCCOCCOC2
44.2 µM: UACC-62 melanoma
93.5 µM: SF-268 CNS
65.7 µM: SR leukemia
87.3 µM: M19-MEL melanoma
98.3 µM: MALME-3M melanoma
55 µM: LXFL 529 NSCLC
82.5 µM: UACC-257 melanoma
50 µM: KM12 colon
73.9 µM: HOP-92 NSCLC
46.7 µM: SK-MEL-28 melanoma
44 µM: SK-MEL-2 melanoma
33.5 µM: COLO 205 colon
not listed: DMS 114 small cell lung | RXF 393 renal | SNB-78 CNS | NCI-H460 lung | A498 renal | RPMI-8226 leukemia | SK-MEL-5 melanoma | IGROV1 ovarian | OVCAR-3 ovarian | DU-145 prostate | BT-549 breast | PC-3 prostate | HS 578T breast | NCI/ADR-RES ovarian | MCF7 breast | T-47D breast | MDA-MB-435 | MDA-N | MDA-MB-231 breast
> 100 µM: all other assays above

CC1(c2ccccc2Cl)C(C#N)C(=O)NC(=O)C1C#N (stereo not drawn)
98 µM: NCI-H226 lung
48.5 µM: HL-60(TB) leukemia
59.6 µM: RPMI-8226 leukemia
74.2 µM: SK-MEL-5 melanoma
46.7 µM: OVCAR-3 ovarian
75.4 µM: SNB-75 CNS
54 µM: NCI-H522 lung
59.8 µM: HOP-92 NSCLC
92.8 µM: SNB-19 CNS
not listed: SR leukemia | U251 CNS | KM12 colon | HOP-18 NSCLC | HCT-116 colon | DU-145 prostate | BT-549 breast | PC-3 prostate | HS 578T breast | NCI/ADR-RES ovarian | MCF7 breast | T-47D breast | MDA-MB-435 | MDA-N | MDA-MB-231 breast
> 100 µM: all other assays above

Cc1ccc(S(=O)(=O)N/N=C(/CC(=O)c2c(C)n([O-])c3ccccc3[n+]2=O)C(=O)Nc2ccccc2C)cc1
not listed: HL-60(TB) leukemia | K-562 leukemia | LOX IMVI melanoma | TK-10 renal | CCRF-CEM leukemia | MOLT-4 leukemia | OVCAR-8 ovarian | SK-MEL-5 melanoma | DU-145 prostate | BT-549 breast | PC-3 prostate | HS 578T breast | NCI/ADR-RES ovarian | MCF7 breast | T-47D breast | MDA-MB-435 | MDA-N | MDA-MB-231 breast
> 100 µM: all other assays above

OCCNC1c2cc(Cl)ccc2-c2c(Cl)cc(Cl)cc21 (stereo not drawn)
67 µM: ACHN renal
63.4 µM: NCI-H460 lung
47.6 µM: MOLT-4 leukemia
44.9 µM: SR leukemia
51.4 µM: HL-60(TB) leukemia
45.4 µM: SK-MEL-2 melanoma
47 µM: IGROV1 ovarian
86.3 µM: SN12C renal
55.8 µM: HOP-92 NSCLC
53.8 µM: MCF7 breast
98.9 µM: MDA-MB-231 breast
47.4 µM: CCRF-CEM leukemia
80 µM: OVCAR-3 ovarian
77.3 µM: PC-3 prostate
not listed: LXFL 529 NSCLC | HOP-18 NSCLC | KM20L2 colon | M19-MEL melanoma | DMS 273 small cell lung | DLD-1 colon | DMS 114 small cell lung | SNB-78 CNS
> 100 µM: all other assays above

Reference: PubChem BioAssay (NCI)
